{
  "source": "patent US20200376291A1",
  "about": "“PHOTOBIOMODULATION THERAPY TO DELAY DYSTROPHY PROGRESSION” (Multi Radiance Medical, priority 2017, published 2020)",
  "format_in_all_cases": "in vivo",
  "key": {"dystrophin": {"test_system": "dystrophin", "assay": "Dystrophin in tibialis anterior muscle of mdx mice by immunohistochemistry", "details": "treated for 14 weeks from 6 weeks of age, prednisone 1.5 mg/kg per day, ibuprofen 25 mg/kg per day, PBMT 3 times a week, FIG. 18", "protocol": "Mice were randomly divided into 7 different experimental groups: Wild Type (WT), Placebo-control (mdx mice), Prednisone (mdx mice), NSAID (mdx mice), […], and PBMT+NSAID (mdx mice). Prednisone (glucocorticoid) treatment was administered to animals daily with a dose of 1.5 mg/kg per day; NSAID treatment with ibuprofen was also administered to animals daily with a dose of 25 mg/kg per day. PBMT was performed employing a cluster probe (Multi Radiance Medical, Solon, Ohio) with 9 diodes (1 super-pulsed laser diode (905 nm), four LED diodes (875 nm), and 4 LED diodes (650 nm). PBMT was applied 3 times a week with direct contact to the animal's skin on hindlimb at a single point (tibialis anterior muscle—bilaterally). For combined treatments, each modality was applied as described previously. All treatments were performed during 14 weeks and started with animals at 6 weeks of age. The analysis consisted of muscle morphology, dystrophin through itntnunohistochetnistry and functional performance."}, "mdx mice [1]": {"test_system": "mdx mice", "assay": "Skeletal muscle tissue morphology (histological sections, HE) in mdx mice", "details": "treated for 14 weeks from 6 weeks of age, tibialis anterior muscle, FIGS. 13-17", "protocol": "The tibialis anterior muscles of the animal's hind paw were collected and stored in 10% buffered formalin for histological processing; then, hematoxylin and eosin staining was performed in a routine method. Slides were photographed, and the morphology of the skeletal striated muscle fibers was analyzed (Eclipse E-200; Nikon, Tokyo, Japan). Images of all groups were obtained using the 400x magnification. The images were presented with a similar photographic pattern.\n(§1) Mice were randomly divided into 7 different experimental groups: Wild Type (WT), Placebo-control (mdx mice), Prednisone (mdx mice), NSAID (mdx mice), […], and PBMT+NSAID (mdx mice). Prednisone (glucocorticoid) treatment was administered to animals daily with a dose of 1.5 mg/kg per day; NSAID treatment with ibuprofen was also administered to animals daily with a dose of 25 mg/kg per day. […]"}, "mdx mice [2]": {"test_system": "mdx mice", "assay": "Functional performance assessment in mdx mice", "details": "treated for 14 weeks from 6 weeks of age, FIG. 19", "protocol": "The PBMT was analyzed using a functional performance evaluation protocol. The functional performance evaluation protocol included the animal climbing stairs with the following dimensions (1×0.09 m, distance between the steps of 0.5 cm and)80° using the animal's body weight (the protocol began with the animal's familiarization, in two sessions with a 24-h interval between the sessions). The aim of the sessions was to teach the mouse to move up the steps and consisted of three repetitions to the top, with a 60 s interval to rest. If necessary, a clamp stimulus for the animal to start moving was applied. After this familiarization, the assessments were performed before the treatments begin and 24-h after the last treatment, in order to evaluate how many times each mouse was able to climb up the stairs until the animal came to fatigue. Fatigue was identified when the animal could no longer perform the activity.\nas §1"}},
  "data": [
    {"smiles": "CC(C)Cc1ccc(C(C)C(=O)O)cc1", "note": "(stereo not shown) [NSAID, ibuprofen]", "values": [
      {"measurement": "dystrophin compared to the placebo-control group", "setting": "dystrophin", "value": "no significant increase in dystrophin"}
    ]},
    {"smiles": "C[C@]12C=CC(=O)C=C1CC[C@@H]1[C@@H]2C(=O)C[C@@]2(C)[C@H]1CC[C@]2(O)C(=O)CO", "note": "[Prednisone]", "values": [
      {"measurement": "dystrophin compared to the placebo-control group", "setting": "dystrophin", "value": "increased dystrophin"},
      {"measurement": "morphological aspects of skeletal muscle", "setting": "mdx mice [1]", "value": "improvement in the morphological aspects of skeletal muscle"},
      {"measurement": "muscular function compared to the placebo-control group", "setting": "mdx mice [2]", "value": "improved muscular function"}
    ]}
  ]
}
